# Legend:
# Experiment in all cases: In vitro antibacterial evaluation: minimum inhibitory concentration (MIC), broth dilution method
# Assay type in all cases: cell-based
# Settings in all cases: broth dilution, 18 hours at 35° C.
# Staphylococcus sp. = tested on: Staphylococcus sp.
# How it was run: (§1)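 An MIC is reported for each organism as the least concentration giving inhibition, using broth dilution over 64-0.06 μg/mL with a 5×10^5 CFU/mL inoculum.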
# Enterococcus sp. = tested on: Enterococcus sp.
# How it was run: as §1
# Streptococcus sp. = tested on: Streptococcus sp.
# How it was run: as §1
# Escherichia coli = tested on: Escherichia coli
smiles,measurement,setting,value
"COc1cc(-c2nc3cc(CC4NC(=O)C(C(C)c5ccccc5)NC(=O)CNC(=O)C(CO)NC(=O)C(C(O)C5CNC(=N)N5C5OC(CO)C(O)C(O)C5O)NC(=O)C(C(O)C5CNC(=N)N5)NC4=O)ccc3o2)cc(OC)c1OC (stereo not drawn) [Example 34, Cyclo[3-[2-(3,4,5-trimethoxyphenyl)-1,3-benzoxazol-5-yl]alanyl-3-(2-iminoimidazolidin-4-yl)seryl-3-(3-hexopyranosyl-2-iminoimidazolidin-4-yl)serylserylglycyl-β-methylphenyl-alanyl]]",MIC Coagulase Negative Staphylococcus (GC 4547),Staphylococcus sp.,16 µg/mL
same,MIC Coagulase Negative Staphylococcus (GC 4548),Staphylococcus sp.,16 µg/mL
same,MIC Coagulase Negative Staphylococcus (GC 4549),Staphylococcus sp.,4 µg/mL
same,MIC Coagulase Negative Staphylococcus (GC 4551),Staphylococcus sp.,32 µg/mL
same,MIC Coagulase Negative Staphylococcus (GC 6257),Staphylococcus sp.,8 µg/mL
same,MIC Staphylococcus aureus SMITH (GC 4543),Staphylococcus sp.,16 µg/mL
same,MIC Staphylococcus haemolyticus (GC 4546),Staphylococcus sp.,8 µg/mL
same,MIC Staphylococcus aureus-SMITH (GC 4543),Staphylococcus sp.; strain SMITH GC 4543,16 µg/mL
same,MIC Enterococcus avium (GC 4558),Enterococcus sp.; Enterococcus avium (GC 4558),16 µg/mL
same,MIC Enterococcus faecalis (ATCC 29212),Enterococcus sp.; Enterococcus faecalis (ATCC 29212),64 µg/mL
same,MIC Enterococcus faecalis (GC 2242),Enterococcus sp.; Enterococcus faecalis (GC 2242),32 µg/mL
same,MIC Enterococcus faecalis (GC 2691),Enterococcus sp.; Enterococcus faecalis (GC 2691),32 µg/mL
same,MIC Enterococcus faecalis (GC 3059),Enterococcus sp.; Enterococcus faecalis (GC 3059),32 µg/mL
same,MIC Enterococcus faecalis (GC 4552),Enterococcus sp.; Enterococcus faecalis (GC 4552),32 µg/mL
same,MIC Enterococcus faecalis (GC 4553),Enterococcus sp.; Enterococcus faecalis (GC 4553),32 µg/mL
same,MIC Enterococcus faecalis (GC 4554),Enterococcus sp.; Enterococcus faecalis (GC 4554),32 µg/mL
same,MIC Enterococcus faecalis (GC 6189),Enterococcus sp.; Enterococcus faecalis (GC 6189),64 µg/mL
same,MIC Enterococcus faecium (GC 2243),Enterococcus sp.; Enterococcus faecium (GC 2243),32 µg/mL
same,MIC Enterococcus faecium (GC 4556),Enterococcus sp.; Enterococcus faecium (GC 4556),64 µg/mL
same,MIC Enterococcus faecium (GC 4557),Enterococcus sp.; Enterococcus faecium (GC 4557),8 µg/mL
same,MIC Enterococcus avium (GC 4558),Enterococcus sp.,16 µg/mL
same,MIC Enterococcus faecalis (ATCC 29212),Enterococcus sp.,64 µg/mL
same,MIC Enterococcus faecalis (GC 2242),Enterococcus sp.,32 µg/mL
same,MIC Enterococcus faecalis (GC 2691),Enterococcus sp.,32 µg/mL
same,MIC Enterococcus faecalis (GC 3059),Enterococcus sp.,32 µg/mL
same,MIC Enterococcus faecalis (GC 4552),Enterococcus sp.,32 µg/mL
same,MIC Enterococcus faecalis (GC 4553),Enterococcus sp.,32 µg/mL
same,MIC Enterococcus faecalis (GC 4554),Enterococcus sp.,32 µg/mL
same,MIC Enterococcus faecalis (GC 6189),Enterococcus sp.,64 µg/mL
same,MIC Enterococcus faecium (GC 2243),Enterococcus sp.,32 µg/mL
same,MIC Enterococcus faecium (GC 4556),Enterococcus sp.,64 µg/mL
same,MIC Enterococcus faecium (GC 4557),Enterococcus sp.,8 µg/mL
same,MIC Streptococcus agalactiae (GC 4564),Streptococcus sp.; Streptococcus agalactiae (GC 4564),32 µg/mL
same,MIC Streptococcus pneumoniae (ATCC 6301),Streptococcus sp.; Streptococcus pneumoniae (ATCC 6301),32 µg/mL
same,MIC Streptococcus pneumoniae (GC 1894),Streptococcus sp.; Streptococcus pneumoniae (GC 1894),16 µg/mL
same,MIC Streptococcus pneumoniae (GC 4565),Streptococcus sp.; Streptococcus pneumoniae (GC 4565),32 µg/mL
same,MIC Streptococcus pyogenes (GC 4563),Streptococcus sp.; Streptococcus pyogenes (GC 4563),8 µg/mL
same,MIC Streptococcus agalactiae (GC 4564),Streptococcus sp.,32 µg/mL
same,MIC Streptococcus pneumoniae (ATCC 6301),Streptococcus sp.,32 µg/mL
same,MIC Streptococcus pneumoniae (GC 1894),Streptococcus sp.,16 µg/mL
same,MIC Streptococcus pneumoniae (GC 4565),Streptococcus sp.,32 µg/mL
same,MIC Streptococcus pyogenes (GC 4563),Streptococcus sp.,8 µg/mL
same,MIC Escherichia coli (ATCC 25922),Escherichia coli,64 µg/mL
same,MIC Escherichia coli (GC 4559),Escherichia coli,64 µg/mL
same,MIC Escherichia coli (GC 4560),Escherichia coli,16 µg/mL

# — US8247211B2, “Glycopeptide antibiotics” (American Cyanamid Company, priority 2001, dated 2012)
